Results: patent US8106055B2, “Substituted amide compounds” (Gruenenthal GmbH, priority 2007, dated 2012)

Legend:
[1] = molecular target: T1, serotonin (5-HT) reuptake (Rattus norvegicus, UniProt P31652); assay: Inhibition of serotonin (5HT) reuptake in synaptosomes from rat brain; assay type: biochemical; settings: test concentration of 10 μM; for inhibition at 10 µM: read-out: 5-HT (inhibition of reuptake of serotonin, % inhibition)
T1 construct: synaptosomes are freshly isolated from areas of the rat brain; from tissue; host or cells: rat brain synaptosomes (P2 fraction)
T1 sequence (P31652 whole entry): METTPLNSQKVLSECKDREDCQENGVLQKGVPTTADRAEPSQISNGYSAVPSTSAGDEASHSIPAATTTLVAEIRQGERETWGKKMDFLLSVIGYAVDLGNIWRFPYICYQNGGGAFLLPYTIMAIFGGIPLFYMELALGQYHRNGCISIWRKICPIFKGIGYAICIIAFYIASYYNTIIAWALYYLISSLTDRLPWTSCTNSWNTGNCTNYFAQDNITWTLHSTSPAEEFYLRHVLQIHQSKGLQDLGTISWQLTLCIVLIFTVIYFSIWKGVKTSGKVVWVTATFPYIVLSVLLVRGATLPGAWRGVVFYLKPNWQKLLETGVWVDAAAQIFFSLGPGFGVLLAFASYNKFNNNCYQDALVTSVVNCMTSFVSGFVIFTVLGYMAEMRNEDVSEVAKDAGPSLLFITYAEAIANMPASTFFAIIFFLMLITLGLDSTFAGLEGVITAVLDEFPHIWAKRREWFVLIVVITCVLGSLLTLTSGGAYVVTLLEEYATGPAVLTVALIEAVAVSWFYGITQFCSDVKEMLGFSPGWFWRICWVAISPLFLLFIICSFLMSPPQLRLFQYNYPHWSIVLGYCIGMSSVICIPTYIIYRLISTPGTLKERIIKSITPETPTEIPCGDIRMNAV
In short: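 Compounds screened at 10 μM and reported as percent inhibition of serotonin uptake. Uptake measured in a freshly prepared P2 synaptosomal fraction from rat brain.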

[2] = molecular target: T2, human μ opiate receptor (Homo sapiens, UniProt P35372); assay: Affinity for the human μ opiate receptor ([3H]-naloxone displacement, CHO-K1 receptor membrane preparation, SPA); assay type: binding; settings: test concentration of 1 μM; for inhibition at 1 µM: read-out: μ (binding on the μ opioid receptor, % inhibition)
T2 construct: purchased PerkinElmer Life Sciences, Zaventem, Belgium RB-HOM; host or cells: CHO-K1 cells (membrane preparation)
T2 sequence (P35372 whole entry): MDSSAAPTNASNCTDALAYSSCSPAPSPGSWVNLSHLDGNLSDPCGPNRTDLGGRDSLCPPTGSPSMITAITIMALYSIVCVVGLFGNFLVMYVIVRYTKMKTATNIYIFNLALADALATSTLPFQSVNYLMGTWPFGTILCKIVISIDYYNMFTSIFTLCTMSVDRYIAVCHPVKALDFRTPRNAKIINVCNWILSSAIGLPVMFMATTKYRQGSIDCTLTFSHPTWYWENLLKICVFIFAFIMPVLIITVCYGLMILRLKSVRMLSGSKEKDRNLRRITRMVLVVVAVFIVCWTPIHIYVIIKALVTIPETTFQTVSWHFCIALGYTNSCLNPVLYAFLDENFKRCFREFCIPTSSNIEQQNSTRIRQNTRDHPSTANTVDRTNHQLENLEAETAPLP
In short: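 At 1 μmol/l, compounds were scored for % displacement of 1 nmol/l [3H]-naloxone from CHO-K1-expressed human μ opiate receptor in a homogeneous SPA format (90 min, room temperature).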

| Structure (SMILES) | 5-HT (inhibition of reuptake of serotonin, % inhibition) [1] | μ (binding on the μ opioid receptor, % inhibition) [2] | inhibition at 10 µM [1] | inhibition at 1 µM [2] |
| --- | --- | --- | --- | --- |
| CN(C)C(c1ccc(F)cc1)C1CCC(CNC(=O)COCCC2CCN(S(=O)(=O)c3ccccc3)CC2)CC1 (centres unmarked) [Example 583] | 77% | 7% |  |  |
| CN(C)C(c1ccccc1)C1CCC(CNC(=O)COC2CCCN(S(=O)(=O)c3ccccc3)C2)CC1 (centres unmarked) [Example 114, N-((4-((dimethylamino)(phenyl)methyl)cyclohexyl)methyl)-2-(1-(phenylsulfonyl)piperidin-3-yloxy)acetamide] |  |  | 96% | 85% |
| COc1cc(C)c(S(=O)(=O)N2CCC(CCOCC(=O)NC3CCC(C(c4cccc(F)c4)N(C)C)CC3)CC2)c(C)c1C (centres unmarked) [Example 118, N-(4-((dimethylamino)(3-fluorophenyl)methyl)cyclohexyl)-2-(2-(1-(4-methoxy-2,3,6-trimethylphenylsulfonyl)piperidin-4-yl)ethoxy)acetamide] |  |  | 92% | 90% |
| CN(C)C(c1cccs1)C1CCC(CCNC(=O)COCC2CCCN(S(=O)(=O)c3ccccc3)C2)CC1 (centres unmarked) [Example 115, N-(2-(4-((dimethylamino)(thiophen-2-yl)methyl)cyclohexyl)ethyl)-2-((1-(phenylsulfonyl)piperidin-3-yl)methoxy)acetamide] |  |  | 97% | 91% |
| CN(C)C(c1cccs1)C1CCC(CCNC(=O)COC2CCN(S(=O)(=O)c3cccc(C(F)(F)F)c3)C2)CC1 (centres unmarked) [Example 96, N-(2-(4-((dimethylamino)(thiophen-2-yl)methyl)cyclohexyl)ethyl)-2-(1-(3-(trifluoromethyl)phenylsulfonyl)pyrrolidin-3-yloxy)acetamide] |  |  | 81% | 92% |
| COc1cc(C)c(S(=O)(=O)N2CCC(OCC(=O)NC3CCC(C(c4cccs4)N(C)C)CC3)C2)c(C)c1 (centres unmarked) [Example 98, N-(4-((dimethylamino)(thiophen-2-yl)methyl)cyclohexyl)-2-(1-(4-methoxy-2,6-dimethylphenylsulfonyl)pyrrolidin-3-yloxy)acetamide] |  |  | 92% | 91% |
| CN(C)C(c1cccc(F)c1)C1CCC(NC(=O)COC2CCCCC2N(C)S(=O)(=O)c2ccc(Cl)c(Cl)c2)CC1 (centres unmarked) [Example 132, 2-(2-(3,4-dichloro-N-methylphenylsulfonamido)cyclohexyloxy)-N-(4-((dimethylamino)(3-fluorophenyl)methyl)cyclohexyl)acetamide] |  |  | 83% | 91% |
| COc1ccc(S(=O)(=O)N2CCCCC2CCOCC(=O)NC2CCC(C(c3cccs3)N(C)C)CC2)cc1 (centres unmarked) [Example 6, N-(4-((dimethylamino)(thiophen-2-yl)methyl)cyclohexyl)-2-(2-(1-(4-methoxyphenylsulfonyl)piperidin-2-yl)ethoxy)acetamide] |  |  | 91% | 99% |
| COc1ccc(S(=O)(=O)N(C)CCOCC(=O)NCC2CCC(C(c3cccs3)N(C)C)CC2)cc1OC (centres unmarked) [Example 127, 2-(2-(3,4-Dimethoxy-N-methylphenylsulfonamido)ethoxy)-N-((4-((dimethylamino)(thiophen-2-yl)methyl)cyclohexyl)methyl)acetamide] |  |  | 79% | 87% |
| CN(C)C(CCc1ccccc1)C1CCC(CNC(=O)COCCN(C)S(=O)(=O)c2ccc(OC(F)(F)F)cc2)CC1 (centres unmarked) [Example 567] | 93% | 23% |  |  |
| CN(C)C(c1cccc(F)c1)C1CCC(CCNC(=O)COCCN(C)S(=O)(=O)c2ccc(Cl)cc2Cl)CC1 (centres unmarked) [Example 126, 2-(2-(2,4-dichloro-N-methylphenylsulfonamido)ethoxy)-N-(2-(4-((dimethylamino)(3-fluorophenyl)methyl)cyclohexyl)ethyl)acetamide] |  |  | 86% | 92% |
| COc1cc(C)c(S(=O)(=O)N(CCOCC(=O)NCCC2CCC(C(c3ccc(F)cc3)N(C)C)CC2)Cc2ccccc2)c(C)c1C (centres unmarked) [Example 554] | 92% | 28% |  |  |
| CN(C)C(c1cccs1)C1CCC(CCNC(=O)COCCN2CCN(S(=O)(=O)c3ccccc3)CC2)CC1 (centres unmarked) [Example 99, N-(2-(4-((dimethylamino)(thiophen-2-yl)methyl)cyclohexyl)ethyl)-2-(2-(4-(phenylsulfonyl)piperazin-1-yl)ethoxy)acetamide] |  |  | 95% | 92% |
